Experimental data as given in US20160045482A1, “UREIDO-PYRAZOLE DERIVATIVES” (Respivert Limited, priority 2010, published 2016).

Experiments:
HRV16 [1] = experiment: HRV-16 infection, assessment of virus load (TCID50) in MRC5 cells; type: cell-based, human rhinovirus 16; settings: HRV16 0.1 MOI, 3 days
Procedure: Human rhinovirus RV16 (HRV16) was obtained from the American Type Culture Collection (Manassas, Va.). Viral stocks were generated by infecting Hela cells with HRV until 80% of the cells were cytopathic. MRC5 cells (human lung fibroblast, ATCC) were infected at 0.1 MOI (multiplicity of infection of 0.1) of HRV16 and incubated for 1 hr at 33° C. with gentle shaking to stimulate adsorption. The cells were then washed with PBS, fresh media (DMEM-5% FCS) was added and the cells were incubated for a further 72 hr. Supernatant (20 μL) was collected and 10-fold serial dilutions were prepared with DMEM containing 1% FCS. All titrations were performed by infecting confluent Hela cell monolayers with serially diluted supernatant (10^−1-10^−5) and then the cytopathic effect at each dilution 3 days after infection assessed by visual inspection. The cells were then stained with Crystal Violet for confirmation. The amount of virus required to infect 50% of Hela cells was calculated in each treatment as TCID50 (50% tissue culture infectious dose, U(unit)/20 μL). Compounds were added 2 hr before HRV16 infection and 1 hr after infection when non-infected HRV was washed out.

IRF-3 = experiment: HRV-16 induced activation of IRF-3 in BEAS2B cells; type: cell-based, human; settings: after 2 hr, at 10 MOI
Procedure: (§1) The cells were then collected by scraping on ice and nuclear extracts were prepared using a nuclear protein extraction kit (ActiveMotif, […], Belgium). NFκB activity and IRF3 activity were then measured using the TransAMTM NFκB (p65) ELISA kit or the TransAMTM IRF3 ELISA kit.

HRV16 [2] = experiment: Assessment of HRV16 induced CPE in MRC5; type: cell-based, human rhinovirus 16; settings: MRC5 cells; for IC50: Rhinovirus A, 96 h, HRV16 MOI of 1, 4 days, read-out: HRV16-induced CPE IC50 Value
Procedure: The supernatants were aspirated and fresh media was added and the preparations were then incubated for 4 days. Where appropriate, cells were pre-incubated with the test compound or DMSO for 2 hr, and the compounds and DMSO added again after washout of the virus. Supernatants were aspirated and incubated with methylene blue solution (2% formaldehyde, 10% methanol and 0.175% Methylene Blue) for 2 hr at RT. After washing, 1% SDS was added to each well, and plates were shaken lightly for 1-2 hr prior to reading the absorbance at 660 nm. The percentage inhibition for each well was calculated. The IC50 value was calculated from the concentration-response curve generated from the serial dilutions of the test compound.

IL-8 = IL-8 release activated by human rhinovirus in BEAS2B cells; type: cell-based; settings: Homo sapiens, BEAS-2B; BEAS2B cells, MOI of 5, 72 hr; read-out: HRV16-induced IL-8 IC50 Value
Procedure: BEAS2B cells were infected with rhinovirus at an MOI of 5 and incubated for 2 hr at 33° C. with gentle shaking to enhance adsorption. Test compounds were added 2 hr before HRV infection and 2 hr after infection when residual extracellular HRV was washed out. The cells were then washed with PBS, fresh media was added and the cells were incubated for a further 72 hr. The supernatant was collected for assay of IL-8 concentrations using the Duoset ELISA development kit (R&D Systems, Minneapolis, Minn.).

ICAM-1 = experiment: ICAM1 expression activated by human rhinovirus in BEAS2B cells (cell-based ELISA); settings: for IC50: Homo sapiens, BEAS-2B, HRV16 inoculation (2 hr infection), read-out: HRV16-induced ICAM1 IC50 Value
Procedure: BEAS2B cells were infected with rhinovirus at an MOI of 5 and incubated for 2 hr at 33° C. with gentle shaking to enhance adsorption. Test compounds were added 2 hr before HRV infection and 2 hr after infection when residual extracellular HRV was washed out. The cells were then washed with PBS, fresh media was added and the cells were incubated for a further 72 hr. The supernatant was collected for assay of IL-8 concentrations using the Duoset ELISA development kit (R&D Systems, Minneapolis, Minn.). […] After appropriate incubation, cells were fixed with 4% formaldehyde in PBS. After quenching endogenous peroxidase by adding 0.1% sodium azide and 1% hydrogen peroxide, wells were washed with buffer (0.05% Tween in PBS: PBS-Tween). After incubation with the blocking solution (5% milk in PBS-Tween for 1 hr), cells were incubated with anti-human ICAM-1 antibody in 5% BSA PBS-Tween (1:500) overnight. Wells were then washed with PBS-Tween and incubated with the secondary antibody (HRP-conjugated anti-rabbit IgG, Dako Ltd.).

NFκB = experiment: HRV-16 induced activation of NFκB in BEAS2B cells; type: cell-based, human; settings: after 2 hr, at 10 MOI
Procedure: as §1

HRV16 mRNA = experiment: Transcripts of HRV16 by PCR in MRC5 cellular extract; type: cell-based, human rhinovirus 16; settings: MRC5 cells, HRV16 0.1 MOI, 3 days
Procedure: The MRC5 cells infected with virus (as described above) were used for viral RNA or mRNA detection. Total RNA extraction and reverse transcription were performed using TaqMan®Fast Cells-to-CT™ Kit (Ambion Inc. Austin Tex.). The gene transcript level of HRV16 (PrimerDesign Ltd, Southampton, UK), IFN (Applied Biosystems, Warrington, UK) and GAPDH, as a house-keeping gene (PrimerDesign Ltd, Southampton, UK) were quantified by real-time PCR using commercially available primers on a StepOnePlus™ RT-PCR system (Applied Biosystems, Warrington, UK). Variations in cDNA concentrations between different samples were corrected using the housekeeping gene, whereby the GAPDH concentration in each cDNA sample was calculated, and the cDNA diluted to contain equal amounts of GAPDH. Standard curves for GAPDH were generated by performing a dilution series of the untreated control cDNA. The relative amount of gene transcript present after different treatments was calculated and normalized by dividing the calculated value for the gene of interest by that of the house-keeping gene value.

HRV16 [3] = experiment: HRV-16 infection, assessment of virus load (TCID50) in MRC5 cells; type: cell-based, human rhinovirus 16; settings: pilot studies
rhinovirus = settings: Jefferson and Tyrrell 2007; cited from earlier work
[4] = listed as Fluticasone propionate

SMILES | HRV16-induced CPE (in words) (HRV16 [2]) | IC50 (HRV16 [2]) | IC50 (IL-8) | further results
Cc1ccc(-n2nc(C(C)(C)C)cc2NC(=O)Nc2ccc(OCCN3CCOCC3)c3ccccc23)cc1 [BIRB-796] | – | – | – | HRV-16 virus load (extracellular) (HRV16 [1]): No effect; IRF-3 activation (HRV-16 induced) (IRF-3): tendency to inhibit
Cc1ccc(-n2nc(C(C)(C)C)cc2NC(=O)Nc2ccc(Oc3ccnc(NC(=O)N4CCCC4)c3)c3ccccc23)cc1 [Example 14, N-(4-(4-(3-(3-tert-Butyl-1-p-tolyl-1H-pyrazol-5-yl)ureido)naphthalen-1-yloxy)pyridin-2-yl)pyrrolidine-1-carboxamide] | inhibited HRV16-induced CPE in MRC5 cells in a concentration-dependent manner | 3.3 nM | – | –
Cc1ccc(-n2nc(C(C)(C)C)cc2NC(=O)Nc2ccc(Oc3ccnc(NC(N)=O)c3)c3ccccc23)cc1 [Example 30, 4-(4-(3-(3-tert-Butyl-1-p-tolyl-1H-pyrazol-5-yl)ureido)naphthalen-1-yloxy)pyridin-2-ylurea] | inhibited HRV16-induced CPE in MRC5 cells in a concentration-dependent manner | 2.9 nM | 0.019 nM | –
CNC(=O)Nc1cc(Oc2ccc(NC(=O)Nc3cc(C(C)(C)C)nn3-c3ccc(C)cc3)c3ccccc23)ccn1 [Example 37] | inhibited HRV16-induced CPE in MRC5 cells in a concentration-dependent manner | 24 nM | 0.12 nM | IC50 (ICAM-1): 0.029 nM
Cc1ccc(-n2nc(C(C)(C)C)cc2NC(=O)Nc2ccc(Oc3ccnc(NC(=O)N4CCOCC4)c3)c3ccccc23)cc1 [Example 43, N-(4-(4-(3-(3-tert-Butyl-1-p-tolyl-1H-pyrazol-5-yl)ureido)naphthalen-1-yloxy)pyridin-2-yl)morpholine-4-carboxamide] | inhibited HRV16-induced CPE in MRC5 cells in a concentration-dependent manner | 9.5 nM | 0.069 nM | –
Cc1ccc(-n2nc(C(C)(C)C)cc2NC(=O)Nc2ccc(Oc3ccnc(NC(=O)N4CCN(C)CC4)c3)c3ccccc23)cc1 [Example 44, N-(4-((4-(3-(3-(tert-Butyl)-1-(p-tolyl)-1H-pyrazol-5-yl)ureido)naphthalen-1-yl)oxy)pyridin-2-yl)-4-methylpiperazine-1-carboxamide] | inhibited HRV16-induced CPE in MRC5 cells in a concentration-dependent manner | 16.3 nM | 0.041 nM | IC50 (ICAM-1): 0.069 nM
Cc1ccc(-n2nc(C(C)(C)C)cc2NC(=O)Nc2ccc(Oc3ccnc(NC(=O)N(C)C)c3)c3ccccc23)cc1 [Example 45, 3-(4-((4-(3-(3-(tert-Butyl)-1-(p-tolyl)-1H-pyrazol-5-yl)ureido)naphthalen-1-yl)oxy)pyridin-2-yl)-1,1-dimethylurea] | inhibited HRV16-induced CPE in MRC5 cells in a concentration-dependent manner | 9.4 nM | 0.041 nM | IC50 (ICAM-1): 0.098 nM
Cc1ccc(-n2nc(C(C)(C)C)cc2NC(=O)Nc2ccc(Oc3ccnc(NC(=O)N4CC[C@@H](N(C)C)C4)c3)c3ccccc23)cc1 [Example 55, (R)-N-(4-(4-(3-(3-tert-Butyl-1-p-tolyl-1H-pyrazol-5-yl)ureido)naphthalen-1-yloxy)pyridin-2-yl)-3-(dimethylamino)pyrrolidine-1-carboxamide] | inhibited HRV16-induced CPE in MRC5 cells in a concentration-dependent manner | 14.3 nM | – | –
COc1cc(Nc2ncc(F)c(Nc3ccc4c(n3)NC(=O)C(C)(C)O4)n2)cc(OC)c1OC [Example R-406] | – | – | – | NFκB activation (HRV-16 induced) (NFκB): inhibited
CCC(=O)O[C@]1(C(=O)SCF)[C@H](C)C[C@H]2[C@@H]3C[C@H](F)C4=CC(=O)C=C[C@]4(C)[C@@]3(F)[C@@H](O)C[C@@]21C [fluticasone propionate] | – | – | – | ICAM-1 expression induced by HRV16 inoculation (in words) (ICAM-1; 2 hr infection): much more modest; Concentrations at which concentration-dependent effects on ICAM-1 are apparent, relative to Reference Compound 2 (ICAM-1; results not shown): 10,000 fold; HRV-16 virus load (extracellular) (HRV16 [1]): without effect; HRV-16 virus load (extracellular) (HRV16 [1]; [4]): No effect; NFκB activation (HRV-16 induced) (NFκB): no clear effect; NFκB activation (HRV-16 induced) (NFκB; [4]): No effect; IRF-3 activation (HRV-16 induced) (IRF-3): tendency to inhibit; HRV16 mRNA detected in cellular extracts (HRV16 mRNA): without effect
Cc1cc(CCCOc2c(C)cc(-c3noc(C(F)(F)F)n3)cc2C)on1 [pleconaril] | – | – | – | HRV-16 virus load (extracellular) (HRV16 [1]): clearly inhibits; HRV16 mRNA detected in cellular extracts (HRV16 mRNA): clearly inhibits; Effect of treatment time versus the point of inoculation with HRV16 (HRV16 [3]): essentially only effective if the drug was administered prior to infection; Activity against rhinovirus infections in clinical development (rhinovirus): active against rhinovirus infections
